Common to all, as to format: functional, cell-based
Assay [1] has as its system MCF7. Put plainly: Antiproliferative activity against human MCF7 cells after 48 hrs by MTT assay. Conditions: MCF7, 48 h. In general terms: Tetrazolium assays rely on reduction of a dye to a coloured formazan, in cell work by metabolically active cells.
Assay [2] in a line: Antiproliferative activity against human EC9706 cells after 48 hrs by MTT assay. The settings on record: EC9706, 48 h.
The test system of assay [3] is MGC-803. Put plainly: Antiproliferative activity against human MGC803 cells after 48 hrs by MTT assay. Conditions: MGC-803, 48 h.

Regarding `CCCCCCCCCCCCCCCCn1cc(COC[C@@H]2OC[C@H](N)[C@H]2O)nn1`, the IC50 in assay [1] was determined as 2.26 µM; in assay [2], 6.31 µM; in assay [3], 5.34 µM.

Take `CCCCCCCCCCCCn1cc(COC[C@@H]2OC[C@H](N)[C@@H]2O)nn1`: the values for the IC50 in assay [1], in assay [2] and in assay [3] were 2.21 µM, 16 µM and 21.4 µM, respectively.

Regarding `CCCCCCCn1cc(COC[C@@H]2OC[C@H](N)[C@H]2O)nn1`, the IC50 in assay [1], in assay [2] and in assay [3] was over 128 µM each time.

Take `CCCCCCCCn1cc(COC[C@@H]2OC[C@H](N)[C@@H]2O)nn1`: the IC50 in assay [1] stood at 28.1 µM; in assay [2], 44.3 µM; in assay [3] it was 70.4 µM.

Turning to `CCCCCCCn1cc(COC[C@@H]2OC[C@H](N)[C@@H]2O)nn1`, the IC50 in assay [1], in assay [2] and in assay [3] was over 128 µM throughout.

Regarding `CCCCCCCCCCCCCCCCCCn1cc(COC[C@@H]2OC[C@H](N)[C@@H]2O)nn1`, the IC50 in assay [1] is 7.58 µM; in assay [2] it was 17.8 µM; in assay [3], 15.4 µM.

As for `CCCCCCCCCCCCn1cc(COC[C@@H]2OC[C@H](N)[C@H]2O)nn1`, the IC50 came out at 2.62 µM in assay [1], 93.8 µM in assay [2] and 115 µM in assay [3].

Take `O=c1[nH]cc(F)c(=O)[nH]1` [FLUOROURACIL]: the values for the IC50 in assay [1], in assay [2] and in assay [3] were 3.52 µM, 9.45 µM and 11.3 µM, respectively.

Turning to `CCCCCCCCCCCCCCCCn1cc(COC[C@@H]2OC[C@H](N)[C@@H]2O)nn1`, the IC50 was determined as 3.3 µM in assay [1], 20 µM in assay [2] and 27.9 µM in assay [3].

In the case of `CCCCCCCCCCCCCCn1cc(COC[C@@H]2OC[C@H](N)[C@H]2O)nn1`, the IC50 in assay [1] came to 2.45 µM; in assay [2], 6.68 µM; in assay [3], 8.79 µM.

Turning to `CCCCCCCCCn1cc(COC[C@@H]2OC[C@H](N)[C@@H]2O)nn1`, the IC50 is 12.4 µM in assay [1], 20.1 µM in assay [2] and 13.8 µM in assay [3].

As to `CCCCCCCCCn1cc(COC[C@@H]2OC[C@H](N)[C@H]2O)nn1`, the IC50 in assay [1], in assay [2] and in assay [3] was over 128 µM in each case.

As for `CCCCCCCCCCCCCCn1cc(COC[C@@H]2OC[C@H](N)[C@@H]2O)nn1`, the IC50 was determined as 1.85 µM in assay [1], 7.83 µM in assay [2] and 8.21 µM in assay [3].

`CCCCCCCCCCn1cc(COC[C@@H]2OC[C@H](N)[C@H]2O)nn1`: the figures for the IC50 in assay [1], in assay [2] and in assay [3] were 45 µM, 43.1 µM and 57.4 µM, respectively.

As to `CCCCCCCCCCCCCC[C@@H]1OC[C@H](N)[C@@H]1O` [PACHASTRISSAMINE], the IC50 turned out to be 4.84 µM in assay [1], 6.12 µM in assay [2] and 5.1 µM in assay [3].

As for `CCCCCCCCn1cc(COC[C@@H]2OC[C@H](N)[C@H]2O)nn1`, the IC50 in assay [1], in assay [2] and in assay [3] was over 128 µM throughout.

On to `CCCCCCCCCCn1cc(COC[C@@H]2OC[C@H](N)[C@@H]2O)nn1`, for which the IC50 came out at 9.64 µM in assay [1], 15.6 µM in assay [2] and 8.78 µM in assay [3].

By IC50 is commonly meant the concentration that gives 50% inhibition.

(Values after ChEMBL document CHEMBL3259703, “Synthesis and preliminary biological evaluation of 1,2,3-triazole-Jaspine B hybrids as potential cytotoxic agents” (Eur J Med Chem, 2014).)
